Results as given in patent US8076142B2, “Rooted plant assay system” (BASF Plant Sciences GmbH, priority 2006, dated 2011).

Tested on: soybean explants
Assay: Auxin effect on transformation efficiency in soybean explants (disarmed A. rhizogenes, root induction and selection medium)
Format: cell-based
Settings: for transformation efficiency compared to control with no auxin: cotyledons from William 82 as explants
Procedure: Clean soybean seeds from soybean cultivar were sterilized in a chamber with chlorine gas produced by adding 3.5 ml 12N HCl drop wise into 100 ml bleach. All operations were conducted in a fume hood. After 24 hours in the chamber, seeds were removed and used immediately or stored at room temperature until use. Discolored seeds or cracked seeds were removed. To imbibe seeds, warm GM medium was poured around seeds until the seeds were entirely covered by the medium. Seedlings were grown in the light for 5-7 days until the epicotyl was extended beyond the cotyledons. Seedlings can be stored at 4° C. overnight before being used in transformation. The Germination Medium (GM) comprises: 1×B5 salts and vitamins, 1×MS iron stock, 2% sucrose, and 0.8% Noble agar at pH 5.8. As an alternative, soybean seeds can be germinated in 1% agar (50 ml) in Petri dishes for 7 days before Agrobacterium inoculation.
Three days before inoculation, a disarmed Agrobacterium culture, for example, the disarmed A. rhizogenes strain K599 liquid culture, was placed in 5 ml LB+Kan50 (containing 50 ug/ml Kanamycin) media in a 28° C. shaker (225 rpm) overnight. The next day, 1 ml of the culture was taken and spread onto an LB+Kan50 agar plate. The plates were incubated in a 28° C. incubator for two days. At the end of the two-day period the plates were covered with thick colonies. One plate was prepared for every 50 explants to be inoculated.
Soybean seedlings had elongated hypocotyls approximately 3 to 5 cm in length with visible epicotyls. The explants were then prepared by removing the epicotyls and part of the hypocotyls. The explant contained one or two cotyledons, an axillary meristem and the hypocotyl about 0.5 cm to about 3 cm in length. The seed coat was removed to facilitate cotyledon development. The cut end of the hypocotyl was the target for transformation/infection.
Alternatively, cotyledons containing the proximal end from its connection with the seedlings were used as another type of explant for transformation. The cut end was the target for Agrobacterium inoculation.
After the explants were cut off the seedlings, the cut end was immediately dipped onto the disarmed thick A. rhizogenes colonies prepared above so that the colonies were visible on the cut end. Alternatively, the explants can be immersed in the disarmed A. rhizogenes liquid culture for 30 minutes. The explants were then placed onto 1% agar in Petri dishes for co-cultivation. Approximately 10 explants were placed in one dish. The dishes were sealed with Saran wrap and co-cultured at 25-27° C. under light for 6-8 days.
After the transformation and co-cultivation step, soybean explants were transferred to rooting induction medium with a selection agent, for example, S-B5-605 or S-B5-607 for Bar gene selection (De Block et al., EMBO J. 6:2513-2518, 1987), or S-B5-708 for an AHAS mutant gene (Sathasivan et al., Plant Phys. 97:1044-50, 1991) selection, in Petri dishes. The cut end was inserted into the medium so that the callus developed from the cut end in the future was just below the medium surface. Six to nine explants were placed in each Petri dish. Cultures were maintained in the same condition as in the co-cultivation step.
The S-B5-605 medium comprises: 0.5×B5 salts, 3 mM MES, 2% sucrose, 1×B5 vitamins, 400 μg/ml Timentin, 0.8% Noble agar, 1 mg/1 IBA and 3 μg/ml Glufosinate Ammonion (selection agent for Bar gene) at pH 5.8. The S-MS-607 medium comprises: 0.2×MS salts and B5 vitamins, 2% sucrose, 400 mg/l Timentin, and 3 mg/L Glufosinate Ammonium at pH5.8. The S-B5-708 medium comprises: 0.5×B5 salts, 3 mM MES, 2% sucrose, 1×B5 vitamins, 400 μg/ml Timentin, 0.8% Noble agar, and 1 μM Imazapyr (selection agent for AHAS gene) (BASF Corporation, Florham Park, N.J.) at pH5.8.
Two to three weeks after the selection and root induction, transformed roots were formed on the cut ends of the explants. […]

Compound	transgenic roots obtained from hypocotyl explants (control, 0-1 mg/l IBA in the rooting induction and selection medium)	transformation efficiency compared to control with no auxin (3 mg/l IBA)	transformation efficiency (high concentration of IBA, 3 to 5 mg/l, in the medium)	transformation efficiency (soybean hypocotyl and cotyledon explants, medium with 1 mg/l IBA compared to no auxin)	transformation efficiency (NAA 1 mg/l in the medium)	transformation efficiency compared to control with no auxin (1 mg/l NAA)	transgenic roots obtained from hypocotyl explants (infected explants cultured and selected in medium containing 1 mg/l NAA)
O=C(O)CCCc1c[nH]c2ccccc12 [IBA, indole-3-butyric acid]	1-5	doubled	dramatically increased	similar	–	–	–
O=C(O)Cc1cccc2ccccc12 [NAA, napthalene acetic acid]	–	–	–	–	dramatically increased	doubled	more than 20
